The subject of one data set is HCV. The note with it: cited from earlier work.
A further data set concerns HCV protease. The following applies: SDS-PAGE and autoradiography assay; cited from earlier work.
The test system of another data set is MDBK. Put plainly: Cytotoxicity assay (CC50, sulforhodamine B staining). In kind it is cell-based. The following applies: MDBK cells; 4 days incubation; concentration reducing cell number by 50%; preliminary results. The protocol:
The test compounds were dissolved in DMSO at an initial concentration of 200 μM and then were serially diluted in culture medium.
Cells are seeded at a rate of between 5×10^3 and 5×10^4/well into 96-well plates in growth medium overnight at 37° C. in a humidified CO2 (5%) atmosphere. New growth medium containing serial dilutions of the drugs is then added. After incubation for 4 days, cultures are fixed in 50% TCA and stained with sulforhodamineB. The optical density was read at 550 nm. The cytotoxic concentration was expressed as the concentration required to reduce the cell number by 50% (CC50).

On to `NC(=O)c1ncn([C@@H]2O[C@H](CO)[C@@H](O)[C@H]2O)n1` [Ribavirin, 1-β-D-ribofuranosyl-1-1,2,4-triazole-3-carboxamide], for which the “effect on serum levels of HCV-RNA” value with HCV (patients, sole treatment) is reported as “does not lower serum levels of HCV-RNA”. Also, in the data set with HCV (ribavirin alone), the “patients in whom serum amino transferase levels are reduced to normal” value is 40%.

In the case of `CCCC(=O)c1cc2c(c(O)c1C)C(=O)C(=O)c1c(O)cccc1-2` [Sch 68631], in the data set with HCV protease, the “activity against HCV protease” value is reported as “micromolar activity”.

`C[C@]1(CO)O[C@@H](n2cnc3c(N)ncnc32)[C@H](O)[C@@H]1O` [β-D-4′-CH3-riboA, 9-(4-C-methyl-β-D-ribofuranosyl) adenine]: the melting point (as a rule, the temperature, or range, at which the solid turns liquid) was 96 to 97 °C (dec.). The CC50 (in general, the concentration at which the toxic effect on the cells reaches its halfway point) with MDBK is over 250 µM.

The compound `C[C@]1(CO)O[C@@H](n2ccc(N)nc2=O)[C@H](O)[C@@H]1O` [β-D-4′-CH3-riboC, 1-(4-C-methyl-β-D-ribofuranosyl)cytosine] showed a cytotoxic concentration (CC50) in the data set with MDBK of over 250 µM.

Take `Cc1cn([C@@H]2O[C@](C)(CO)[C@@H](O)[C@H]2O)c(=O)[nH]c1=O` [β-D-4′-CH3-riboT, 1-(4-C-methyl-β-D-ribofuranosyl)thymine]: the melting point is 258 to 260 °C (dec.). Besides, in the data set on MDBK, the cytotoxic concentration (CC50) was over 250 µM.

As to `C[C@]1(CO)O[C@@H](n2cnc3c(=O)[nH]c(N)nc32)[C@H](O)[C@@H]1O` [β-D-4′-CH3-riboG, 9-(4-C-methyl-β-D-ribofuranosyl) guanine], the half-maximal cytotoxic concentration (CC50) in the data set with MDBK is over 250 µM.

Turning to `C[C@]1(CO)O[C@@H](n2ccc(=S)[nH]c2=O)[C@H](O)[C@@H]1O` [β-D-4′-CH3-ribo-4-thioU, 1-(4-C-methyl-β-D-ribofuranosyl)4-thio-uracil], the melting point was 65 to 70 °C (dec.). Besides, the cytotoxic concentration (CC50) in the data set on MDBK was over 250 µM.

For the compound `C[C@]1(CO)O[C@@H](n2cc(F)c(=O)[nH]c2=O)[C@H](O)[C@@H]1O` [β-D-4′-CH3-ribo-5-fluoroU], the half-maximal cytotoxic concentration (CC50) in the data set on MDBK was over 167 µM.
